We go through one molecule from patent US20130005811A1, “ANTIMICROBIAL TREATMENT FOR SEEDS AND SPROUTS” (priority 2010, published 2013).

Experiment [1] has as its system S. typhimurium DT 104. As to the kind of experiment: Salmonella on alfalfa seeds with an initial inoculum of 10^4 CFU/g. In kind it is cell-based, Salmonella typhimurium DT104. How it is done:
Five isolates of Escherichia coli O157:H7, including strain 932 (human isolate), E009 (beef isolate), E0018 (cattle isolate), E0122 (cattle isolate), E0139 (deer jerky isolate); and five isolates of Salmonella typhimurium DT104, including strain H2662 (cattle isolate), 11942A (cattle isolate), 13068A (cattle isolate), 152N17-1 (dairy isolate) and H3279 (human isolate) were used. Nalidixic acid-resistant (50 μg/ml) E. coli O157:H7 were used to facilitate enumeration. Each E. coli O157:H7 and Salmonella strain was grown in tryptic soy broth (TSB, Beckon Dickinson, Sparks, Md.) at 37° C. for 18 hr. Approximately equal cell numbers of each of the five strains were combined and used as a 5-strain mixture with cell numbers being adjusted by spectrophotometric (Spectronic Instruments, Rochester, N.Y.) determination as described in Zhao et al., (2009) J. Food Prot. 72: 928-936, incorporated herein by reference in its entirety. Bacterial cell numbers were confirmed by plating 0.1 ml of serial dilutions (1:10) in 0.1% peptone on tryptic soy agar (TSA, Beckon Dickinson) and Sorbitol MacConkey agar (SMA, Oxoid, Hampshire, UK) for E. coli O157:H7, and TSA and XLD agar (Beckon Dickinson) for Salmonella and incubating all plates at 37° C. for 24 hr, after which colonies were counted.
Levulinic acid (0.5%) and 0.05% sodium dodecyl sulfate (SDS) obtained from Sigma-Aldrich (St. Louis, Mo.) were tested in combination at 21±2° C. for their antimicrobial activity to E. coli O157:H7 and S. typhimurium on alfalfa seeds as a wash treatment. Calcium hypochlorite (Arch Chemicals, Smyrna, Ga.) at 20,000 μg/ml (ppm) was used as the positive control, and deionized water was used as the negative control.
Before each trial, 25 ml of sterile tap water and 25 g of alfalfa seeds were added to a WHIRL-PAK® bag (Nasco, Fort Atkinson, Wis.) and pummeled in a stomacher blender at 150 rpm for 1 min. Duplicate 0.1 ml portions of the contents were plated on SMA, XLD, and TSA plates to detect E. coli O157:H7 and Salmonella, and enumerate aerobic bacteria counts according to the protocols described below. Only E. coli O157:H7-negative and Salmonella-negative alfalfa seeds were used. Dry seeds (50 g) were individually placed in a sterilized glass beaker (1 L) and 5 ml of a mixture of E. coli O157:H7 or S. typhimurium DT 104 (high inocula at 10^8-10^9 CFU/ml and low inocula at 10^3-10^4 CFU/ml) was inoculated on the surface of the seeds in each glass beaker under a laminar flow hood. A sterile plastic spoon was used to mix for 2 min the seeds with bacterial suspension. […]
Inactivation of E. coli O157:H7 and Salmonella on Alfalfa Seeds: Inoculated, dried alfalfa seeds (50 g samples) were placed in a 1000 ml glass beaker containing 200 ml of treatment solution and agitated by a magnetic stir bar at 150 ppm at 21° C. for 0, 1, 2, 5, 10, 20, 30, and 60 min. Following treatment, 25 g of seeds was placed in a stomacher bag containing 25 ml 0.1M phosphate buffer, pH 7.2 (PBS) for levulinic acid plus SDS-treated seeds or neutralizing buffer ([…], Ltd., Worthing, England). The suspension was serially (1:10) diluted in 0.1% peptone water and 0.1 ml of each dilution was surface-plated in duplicate onto TSA and Sorbitol MacConkey agar containing 50 μg nalidixic acid/ml (TSA-NA and SMA-NA) for E. coli O157:H7, and on TSA and XLD containing ampicillin (32 μg/ml), tetracycline (16 μg/ml) and streptomycin (64 μg/ml) (TSA+ and XLD+) for S. typhimurium DT 104. All plates were incubated at 37° C. for 48 hr.

Experiment [2] has as its system E. coli O157:H7. As to the kind of experiment: E. coli O157:H7 on alfalfa seeds with an initial inoculum of 10^4 CFU/g. The class given is cell-based, Escherichia coli O157:H7.
Setting [3] is: 10 min in glass beaker then pummeled 10 min in stomacher bag.
Setting [4] is: dried at 21° C. for 2 hr, treated for 20 min (10 min in beaker and 10 min in a stomacher bag) at 21° C.
Setting [5] is: none pathogen-positive by direct plating.

In the case of `[Ca+2].[O-]Cl.[O-]Cl` [20,000 ppm, Ca(OCl)2, pH 11.4, Calcium hypochlorite], the “Salmonella on treated seeds by direct plating method” value in experiment [1] (setting [3]) was “negative”. Further, in experiment [1] (setting [4]), the “S. typhimurium DT 104 count in sample No. 1-10 (seeds)” value is on record as “−” and the “S. typhimurium DT 104 count in sample No. 1-10 (treated supernatant)” value is reported as “−”. In experiment [1] (enrichment culture after use), the “Salmonella in solutions used for treatment” value is “negative”. In experiment [1] (setting [5]), the “Salmonella detection in samples treated for 10 min” value is on record as “sporadically positive by enrichment culture assay”. Besides, the “E. coli O157:H7 on treated seeds by direct plating method” value in experiment [2] (setting [3]) is given as “negative”. Also, in experiment [2] (setting [4]), the “E. coli O157:H7 count in sample No. 1-10 (seeds)” value is recorded as “−” and the “E. coli O157:H7 count in sample No. 1-10 (treated supernatant)” value is recorded as “−”. Besides, the “E. coli O157:H7 in solutions used for treatment” value in experiment [2] (enrichment culture after use) is recorded as “negative”. Moreover, in experiment [2] (setting [5]), the “E. coli O157:H7 detection in samples treated for 10 min” value is reported as “sporadically positive by enrichment culture assay”.
